Test results published in ChEMBL document CHEMBL4842348 (J Med Chem, 2021).

Assays:
[1] = Half life in DIO wild type mouse adipose tissue at 10 mg/kg, po qd treated for 40 days; format: ADME, organism-based; conditions: time 40 day
[2] = Oral bioavailability in CD1 mouse at 2 mg/kg; format: ADME, organism-based; conditions: in vivo
[3] = Volume of distribution at steady state in rhesus monkey at 0.5 mg/kg, iv; format: ADME, organism-based, Macaca mulatta; conditions: in vivo, read-out: Vdss
[4] = MRT in […] rhesus monkey at 0.5 mg/kg, iv; format: ADME, organism-based, Macaca mulatta; conditions: in vivo
[5] = Terminal half life in Beagle dog at 0.5 mg/kg, iv; format: ADME, organism-based, Canis lupus familiaris; conditions: in vivo, read-out: beta t1/2 (converted)
[6] = Terminal half life in WH rat at 1 mg/kg, iv; format: ADME, organism-based; conditions: in vivo, read-out: beta t1/2 (converted)
[7] = Drug recovery in bile duct cannulated single po dosed rhesus monkey assessed as recovered total feces radioactivity; format: ADME, organism-based, Macaca mulatta; conditions: in vivo
[8] = Volume of distribution at steady state in CD1 mouse at 1 mg/kg, iv and 2 mg/kg, po; format: ADME, organism-based; conditions: in vivo, read-out: Vdss
[9] = Tmax in CD1 mouse at 2 mg/kg, po; format: ADME, organism-based; conditions: in vivo
[10] = Cmax in rhesus monkey at 2 mg/kg, po; format: ADME, organism-based, Macaca mulatta; set-up: route oral, dose 2 mg/kg; conditions: in vivo
[11] = Drug recovery in bile duct cannulated single po dosed WH rat assessed as recovered glucuronide conjugate in bile relative to total recovery; format: ADME, organism-based; conditions: in vivo
[12] = Terminal half life in DIO NFR-transgenic mouse liver at 10 mg/kg, po once daily for 14 days; format: ADME, organism-based; conditions: time 14 day, read-out: beta t1/2 (converted)
[13] = Drug recovery in bile duct cannulated single po dosed rhesus monkey assessed as recovered glucuronide conjugate in feces relative to total recovery; format: ADME, organism-based, Macaca mulatta; conditions: in vivo
[14] = Oral bioavailability in fasted dog at 1 mg/kg in 0.5% methocel; format: ADME, organism-based, Canis lupus familiaris; conditions: in vivo
[15] = Drug recovery in bile duct cannulated single po dosed rhesus monkey assessed as recovered glucuronide conjugate in bile relative to total recovery; format: ADME, organism-based, Macaca mulatta; conditions: in vivo
[16] = Volume of distribution at steady state in Beagle dog at 0.5 mg/kg, iv; format: ADME, organism-based, Canis lupus familiaris; conditions: in vivo, read-out: Vdss
[17] = AUC (0 to infinitive) in WH rat at 2 mg/kg, po; format: ADME, organism-based; set-up: route oral, time infinity, dose 2 mg/kg; conditions: in vivo
[18] = Terminal half life in DIO NFR-transgenic mouse adipose tissue at 10 mg/kg, po once daily for 14 days; format: ADME, organism-based; conditions: time 14 day, read-out: beta t1/2 (converted)
[19] = Drug recovery in bile duct cannulated single po dosed rhesus monkey assessed as recovered parent compound in plasma measured at 2 hrs relative to total recovery; format: ADME, organism-based, Macaca mulatta; conditions: in vivo
[20] = Drug recovery in bile duct cannulated single po dosed WH rat assessed as recovered total feces radioactivity; format: ADME, organism-based; conditions: in vivo
[21] = Plasma clearance in WH rat at 1 mg/kg, iv; format: ADME, organism-based
[22] = Half life in lean wild type mouse plasma at 10 mg/kg, po qd treated for 40 days; format: ADME, organism-based; conditions: time 40 day
[23] = Drug recovery in bile duct cannulated single po dosed rhesus monkey assessed as recovered total urine radioactivity; format: ADME, organism-based, Macaca mulatta; conditions: in vivo
[24] = Drug recovery in bile duct cannulated single po dosed WH rat assessed as recovered taurine conjugate in bile relative to total recovery; format: ADME, organism-based; conditions: in vivo
[25] = Tmax in WH rat at 2 mg/kg, po; format: ADME, organism-based; conditions: in vivo
[26] = MRT in WH rat at 1 mg/kg, iv; format: ADME, organism-based; conditions: in vivo
[27] = Terminal half life in CD1 mouse at 1 mg/kg, iv; format: ADME, organism-based; conditions: in vivo, read-out: beta t1/2 (converted)
[28] = Clearance in CD1 mouse at 1 mg/kg, iv and 2 mg/kg, po; format: ADME, organism-based; conditions: in vivo
[29] = Bioavailability in CD1 mouse at 1 mg/kg, iv and 2 mg/kg, po; format: ADME, organism-based; conditions: in vivo
[30] = Half life in lean NFR-transgenic mouse liver at 10 mg/kg, po qd treated for 40 days; format: ADME, organism-based; conditions: time 40 day
[31] = Normalized AUC (0 to 72 hrs) in high fat diet fed dog at 1 mg/kg, po in Imwitor/Tween; format: ADME, organism-based, Canis lupus familiaris; conditions: in vivo
[32] = Normalized AUC (0 to 72 hrs) in fasted dog at 1 mg/kg, po in Imwitor/Tween; format: ADME, organism-based, Canis lupus familiaris; conditions: in vivo
[33] = Oral bioavailability in high fat diet fed dog at 1 mg/kg in 0.5% methocel; format: ADME, organism-based, Canis lupus familiaris; conditions: in vivo
[34] = Drug recovery in bile duct cannulated single iv dosed WH rat assessed as recovered total bile radioactivity; format: ADME, organism-based; conditions: in vivo
[35] = Half life in lean NFR-transgenic mouse plasma at 10 mg/kg, po qd treated for 40 days; format: ADME, organism-based; conditions: time 40 day
[36] = Half life in DIO wild type mouse liver at 10 mg/kg, po qd treated for 40 days; format: ADME, organism-based; conditions: time 40 day
[37] = Drug recovery in bile duct cannulated single iv dosed WH rat assessed as recovered parent compound in plasma measure at 2 hrs relative to total recovery; format: ADME, organism-based; conditions: in vivo
[38] = Drug recovery in bile duct cannulated single po dosed WH rat assessed as recovered total urine radioactivity; format: ADME, organism-based; conditions: in vivo
[39] = Drug recovery in bile duct cannulated single po dosed rhesus monkey assessed as recovered parent compound in plasma measured at 24 hrs relative to total recovery; format: ADME, organism-based, Macaca mulatta; conditions: in vivo
[40] = Half life in lean wild type mouse liver at 10 mg/kg, po qd treated for 40 days; format: ADME, organism-based; conditions: time 40 day
[41] = Drug recovery in bile duct cannulated single po dosed rhesus monkey assessed as recovered taurine conjugate in bile relative to total recovery; format: ADME, organism-based, Macaca mulatta; conditions: in vivo
[42] = Drug recovery in bile duct cannulated single po dosed WH rat assessed as recovered total bile radioactivity; format: ADME, organism-based; conditions: in vivo
[43] = Cmax in WH rat at 2 mg/kg, po; format: ADME, organism-based; set-up: route oral, dose 2 mg/kg; conditions: in vivo
[44] = Cmax in high fat diet fed dog at 1 mg/kg, po in Imwitor/Tween; format: ADME, organism-based, Canis lupus familiaris; set-up: route oral, dose 1 mg/kg; conditions: in vivo
[45] = AUC (0 to infinitive) in CD1 mouse at 2 mg/kg, po; format: ADME, organism-based; set-up: route oral, time infinity, dose 2 mg/kg; conditions: in vivo
[46] = Cmax in high fat diet fed dog at 1 mg/kg, po in 0.5% methocel; format: ADME, organism-based, Canis lupus familiaris; set-up: route oral, dose 1 mg/kg; conditions: in vivo
[47] = Drug recovery in bile duct cannulated single iv dosed WH rat assessed as recovered parent compound in plasma measure at 24 hrs relative to total recovery; format: ADME, organism-based; conditions: in vivo
[48] = Drug recovery in bile duct cannulated single iv dosed WH rat assessed as recovered glucuronide conjugate in plasma measure at 2 hrs relative to total recovery; format: ADME, organism-based; conditions: in vivo
[49] = Oral bioavailability in rhesus monkey at 2 mg/kg; format: ADME, organism-based, Macaca mulatta; conditions: in vivo
[50] = Normalized AUC (0 to 72 hrs) in high fat diet fed dog at 1 mg/kg, po in 0.5% methocel; format: ADME, organism-based, Canis lupus familiaris; conditions: in vivo
[51] = AUC (0 to infinitive) in Beagle dog at 2 mg/kg, po; format: ADME, organism-based, Canis lupus familiaris; set-up: route oral, time infinity, dose 2 mg/kg; conditions: in vivo
[52] = Plasma clearance in Beagle dog at 0.5 mg/kg, iv; format: ADME, organism-based, Canis lupus familiaris
[53] = Drug recovery in bile duct cannulated single iv dosed WH rat assessed as recovered parent compound in feces relative to total recovery; format: ADME, organism-based; conditions: in vivo
[54] = Terminal half life in rhesus monkey at 0.5 mg/kg, iv; format: ADME, organism-based, Macaca mulatta; conditions: in vivo, read-out: beta t1/2 (converted)
[55] = AUC (0 to infinitive) in rhesus monkey at 2 mg/kg, po; format: ADME, organism-based, Macaca mulatta; set-up: route oral, time infinity, dose 2 mg/kg; conditions: in vivo
[56] = MRT in CD1 mouse at 1 mg/kg, iv and 2 mg/kg, po; format: ADME, organism-based; conditions: in vivo
[57] = Oral bioavailability in WH rat at 2 mg/kg; format: ADME, organism-based; conditions: in vivo
[58] = Volume of distribution at steady state in WH rat at 1 mg/kg, iv; format: ADME, organism-based; conditions: in vivo, read-out: Vdss
[59] = Cmax in fasted dog at 1 mg/kg, po in Imwitor/Tween; format: ADME, organism-based, Canis lupus familiaris; set-up: route oral, dose 1 mg/kg; conditions: in vivo
[60] = Half life in lean wild type mouse adipose tissue at 10 mg/kg, po qd treated for 40 days; format: ADME, organism-based; conditions: time 40 day

## COc1ncc(-c2ccc(C(=O)O)cc2C)cc1-c1ccc(C(F)(F)F)cc1[C@@H]1CC[C@H]2[C@@H](c3cc(C(F)(F)F)cc(C(F)(F)F)c3)OC(=O)N12
[1]
  half-life: 86.4 h
[2]
  bioavailability: 43%
[3]
  Vd: 1.3 L/kg
[4]
  MRT: 60 h
[5]
  half-life: 15 h
[6]
  half-life: 8.1 h
[7]
  Drug recovery: 60%
[8]
  Vd: 0.95 L/kg
[9]
  Tmax: 2.7 h
[10]
  Cmax: 220 nM
[11]
  Drug recovery: > 98%
[12]
  half-life at […]: 5.5 h
[13]
  Drug recovery: 5%
[14]
  bioavailability: 14%
[15]
  Drug recovery: > 96%
[16]
  Vd: 0.54 L/kg
[17]
  AUC(0-inf): 9.7 µM·h
[18]
  half-life at […]: 2.8 h
[19]
  Drug recovery: > 99%
[20]
  Drug recovery: 46%
[21]
  clearance: 3.1 mL/min/kg
[22]
  half-life: 0.8 h
[23]
  Drug recovery: 7%
[24]
  Drug recovery: 0%
[25]
  Tmax: 4 h
[26]
  MRT: 13 h
[27]
  half-life: 4.4 h
[28]
  clearance: 2.6 mL/min/kg
[29]
  bioavailability: 43%
[30]
  half-life: 69.6 h
[31]
  AUC/dose: 22 µM·kg·h/mg
[32]
  AUC/dose: 24 µM·kg·h/mg
[33]
  bioavailability: 9%
[34]
  Drug recovery: 67%
[35]
  half-life: 288 h
[36]
  half-life: 76.8 h
[37]
  Drug recovery: > 96%
[38]
  Drug recovery: 0%
[39]
  Drug recovery: > 99%
[40]
  half-life: 1.5 h
[41]
  Drug recovery: 3%
[42]
  Drug recovery: > 99%
[43]
  Cmax: 400 nM
[44]
  Cmax: 1300 nM
[45]
  AUC(0-inf): 7.9 µM·h
[46]
  Cmax: 300 nM
[47]
  Drug recovery: > 99%
[48]
  Drug recovery: < 4%
[49]
  bioavailability: 8.4%
[50]
  AUC/dose: 4.2 µM·kg·h/mg
[51]
  AUC(0-inf): 13 µM·h
[52]
  clearance: 0.52 mL/min/kg
[53]
  Drug recovery: > 98%
[54]
  half-life: 50 h
[55]
  AUC(0-inf): 11 µM·h
[56]
  MRT: 6 h
[57]
  bioavailability: 65%
[58]
  Vd: 2.4 L/kg
[59]
  Cmax: 1500 nM
[60]
  half-life: 0.8 h
